Measurements from US20230338344A1, “AMPK Activators and Methods of Use Thereof” (Bioverativ Therapeutics Inc., priority 2020, published 2023).

Experiments:
fetal hemoglobin protein = test: Human fetal hemoglobin protein in Townes mice bone marrow by flow cytometry, 15-day study; format: in vivo, mouse; settings: HbSS Townes mice, 100 mg/kg PO QD 15 days, vs vehicle
Text: These mice express the genes for human HbS (homozygous HbSS), express the physiopathological phenotype of SCD and are called “HbSS-Townes mice”, whereas the control Townes mice express the genes for human HbA without the sickle mutation (homozygous HbAA), are healthy, and are called “HbAA-Townes mice” (Jackson Laboratory). These control HbAA-Townes mice were created by replacing the murine globin genes with human α-globin gene (genotype: Hba hα/hα) and linked human βA− and fetal Aγ-globins (genotype: Hbb hAγβA/hAγβA), whereas HbSS-Townes mice were created by replacing the murine adult α-globin genes with the human α-globin gene (genotype: Hba hα/hα), and the murine adult β-globin genes were replaced with human sickle βS− and fetal Aγ-globin gene fragments linked together (genotype: Hbb hAγβS/hAγβS).

[1] = tested on: Nrf2-oxidative stress response pathway; test: Transcriptomic and proteomic analysis of human CD34+ cells differentiated 14 days (correlation study, IPA); format: cell-based; settings: 3 healthy donors
Method: At day 14, RNA was extracted with Trizol reagent (Invitrogen). DNase treatment, RNA integrity and quantification, libraries generation and sequencing (Illumina HiSeq platforms HiSeq 2500) were realized according to Genewiz protocol (South Plainfield, NJ). Concerning the proteomic analysis, proteins were extracted from the same CD34+ cells used for the transcriptomic analysis. Samples preparation, proteins digestion, peptides TMT labeling and proteomic analysis were performed according to IQ Proteomics (Cambridge, MA). Bioinformatics analysis have been conducted to determine the differential expression of mRNA and proteins, and a correlation study using the differential expression from the transcriptomic analysis and the differential expression from the proteomics analysis has been run. […] SQSTM1 is known to activate Nrf2 by inhibiting Keapl, and Nrf2 pathway is known to induce HO-1 for antioxidative function in cells.

[2] = tested on: HBG (human gamma-globin) mRNA; test: gamma-globin (HBG) mRNA in Townes mouse bone marrow by qRT-PCR; format: in vivo; settings: HbAA mice bone marrow, 2 days of exposure, 100 mg/kg
Method: Total RNA from Townes mouse bone marrow cells was prepared using a RNeasy Mini kit (Qiagen). A quantity of 1 μg of mRNA was reverse transcribed using an iVILO Retro Transcription kit (ThermoFisher). 50 ng of the resulting cDNA was amplified by Taqman amplification in a QuantStudio thermocycler (Life Technologies) using HBG (human 7-globin primers) as gene of interest, and GAPDH (mouse gapdh primers) as a housekeeping gene (Life Technologies). The delta Ct was calculated and difference in mRNA expression was expressed as a fold-change to vehicle condition.

[3] = tested on: Reactive Oxidative Species (ROS); test: Reactive Oxidative Species (ROS) in bone marrow from Townes SCD mice by flow cytometry; format: in vivo, mouse; settings: 100 mg/kg PO QD 15 days, vs HbSS mice treated with vehicle
M1 macrophages = test: Macrophage polarization to pro-inflammatory M1 phenotype, markers by flow cytometry; format: cell-based, human; settings: M-CSF polarized macrophages activated by IFN-γ or LPS for 24 h
Method: M1 macrophages were induced by stimulation with M-CSF (50 ng/mL) for 6 days, then activated by IFN-7 or LPS for 24 h, fixed, stained for M1 polarization markers CD38, CD64, CD86 and CD80 and acquired by flowcytometry.

human CD34+ cells [4] = test: Maturation of CD34+ cells to erythrocytes: enucleation (NucRed) and markers CD71/CD235a by flow cytometry; format: cell-based
Method: During human CD34+ cells differentiation, maturation is measured by quantification of enucleation and expression of markers CD71 and CD235a, and assessed by flowcytometry. […] As well, cells were stained for markers CD235a and CD71. The acquisition was performed on BD FACSCanto™ and the analysis was done using FlowJo™ Software.

human CD34+ cells [5] = test: Fetal hemoglobin (HbF) induction in mobilized CD34+ HSPC from healthy individuals during erythroid differentiation, F-cells by flow cytometry; format: cell-based; settings: healthy donors; for fetal hemoglobin induction, F-cell (HbF+) frequency in enucleated GlyA+ cells: vs DMSO or single agents; for frequency of F-cells (HbF+): compared to vehicle (DMSO)
Method: Mobilized CD34+ Human Stem/Progenitor Cells (HSPC) from healthy individuals were cultured for 3 days in a maintenance media consisting of X-VIVO 10 (VWR), 100 U/mL penicillin-streptomycin (ThermoFisher), 2 mM L-glutamine (Fisher Scientific), 100 ng/mL Recombinant Human Stem Cell Factor (SCF), 100 ng/mL Recombinant Human Thrombopoietin (TPO) and 100 ng/mL Recombinant Human Flt-3 Ligand (Flt-3L) (all three from ThermoFisher). Cells were differentiated into erythroid cells using a three-step differentiation protocol developed by the Luc Douay group (Giarratana et al. 2005). […] On day 7, cells were transferred to step 2 media, a step 1 media without hydrocortisone and IL-3, and cultured for 3-4 days. Then cells were cultured for 8-9 days in step 3 media, a step 2 media without SCF. […] To determine the percentage of HbF-positive cells (F-cells), differentiate cells were fixed and permeabilized using a fixation kit (ThermoFisher). Cells were stained with PE-Cy7-conjugated anti-CD235 or PE-conjugated anti-CD71 antibodies. HbF levels were detected using Allophycocyanin (APC)-conjugated anti-HbF antibody (ThermoFisher). The acquisition of stained cells was performed on BD FACSCanto™ and the analysis was run using FlowJo™ Software.
Human CD34+ cells were exposed to β1-selective AMPK activators and pan-AMPK activators during the 21-day differentiation process. To assess fetal hemoglobin expression level, cells were fixed and stained with CD235a, CD71 and fetal hemoglobin antibodies for flowcytometry analysis.
After 14 days of differentiation, cells were fixed and stained with CD235a, CD71 and fetal hemoglobin antibodies for flowcytometry analysis.

[6] = tested on: human CD34+ cells from sickle cell donors; test: Fetal hemoglobin induction in CD34+ cells from patients with sickle cell disease, 14-day differentiation; format: cell-based; settings: 14 days of differentiation, vs DMSO
Text: To measure the effect of AMPK activators on fetal hemoglobin induction in CD34+ cells from patients with sickle cell disease, circulating CD34+ progenitor cells were isolated from total blood obtained from a sickle cell patients, by performing a positive selection for CD34+ cells with magnetic beads (Miltenyi Biotec). Purified CD34+ cells were differentiated for 14 days. After differentiation, cells were fixed and stained with CD235a, CD71 and fetal hemoglobin antibodies for flowcytometry analysis.

[7] = 7-day toxicological study in rats, hematological erythroid parameters; format: in vivo, Crl:CD (Sprague Dawley) rats; settings: rats, 100, 300 and 1000 mg/kg/day PO QD 7 days, blood on day 8
Method: On day 8, blood samples were drawn and complete blood counts (CBC) were tested on a hematology analyzer to determine red blood cell counts (10^6 RBC/μL), hemoglobin (Hb, g/dL) and hematocrit (HCT, %).

AMPK [8] = test: AMPK target engagement: Thr172 phosphorylation of alpha-AMPK (Alpha SureFire Ultra Multiplex) in undifferentiated HUDEP-2 cells; format: cell-based, human
Method: Phosphorylation of AMPK at threonine 172 (Thr172) on the α-subunit of AMPK was assessed by […] using the Alpha SureFire Ultra Multiplex p-AMPKα1/2 (Thr172)+Total AMPKα1/2 Assay Kit from Perkin Elmer as a target engagement assay. The assay kit contains antibodies, coupled with fluorophore Europium, which recognize the phospho-Thr172 epitope and a distal epitope on α-AMPK of human or mouse AMPK. The kit also contains antibodies coupled with the fluorophore Terbium to measure the total levels of AMPK. […] As to the human HUDEP-2 cells line, cells were undifferentiated during exposure to AMPK activators. According to the time course, cells were collected and lysed using RIPA buffer mixed with a phosphatase and protease inhibitors cocktail (Thermofisher). Phospho-AMPK signal was divided by total AMPK signal and the ratio was normalized to the total protein concentration. Samples protein concentrations were measured with the Pierce BSA Protein Assay (ThermoFisher).

AMPK [9] = target: T1, AMPK (Homo sapiens, UniProt Q13131+Q9Y478); test: AMPK target engagement: Thr172 phosphorylation of alpha-AMPK (Alpha SureFire Ultra Multiplex) in CD34+ cells at day 11 of differentiation; format: cell-based; settings: differentiated CD34+ cells
T1 construct: endogenous in cells; host or cells: mobilized human CD34+ HSPC from a healthy donor, day 11 of erythroid differentiation
T1 sequence (Q13131 whole entry): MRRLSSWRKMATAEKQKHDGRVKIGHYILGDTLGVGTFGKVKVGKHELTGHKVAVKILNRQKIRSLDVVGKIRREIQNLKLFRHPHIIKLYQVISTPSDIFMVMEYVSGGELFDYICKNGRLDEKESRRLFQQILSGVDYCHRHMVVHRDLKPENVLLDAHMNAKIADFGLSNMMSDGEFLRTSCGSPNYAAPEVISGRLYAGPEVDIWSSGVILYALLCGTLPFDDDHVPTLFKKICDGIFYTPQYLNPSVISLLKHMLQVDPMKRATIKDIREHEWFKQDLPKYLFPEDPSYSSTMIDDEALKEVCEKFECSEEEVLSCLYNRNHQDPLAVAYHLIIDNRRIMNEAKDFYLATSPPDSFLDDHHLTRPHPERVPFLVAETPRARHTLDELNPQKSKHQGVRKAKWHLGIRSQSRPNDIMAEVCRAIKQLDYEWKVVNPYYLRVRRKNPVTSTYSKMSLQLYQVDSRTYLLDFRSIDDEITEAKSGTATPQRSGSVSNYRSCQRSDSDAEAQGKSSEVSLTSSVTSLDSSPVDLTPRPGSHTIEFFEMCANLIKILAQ
T1 sequence (Q9Y478 2-270): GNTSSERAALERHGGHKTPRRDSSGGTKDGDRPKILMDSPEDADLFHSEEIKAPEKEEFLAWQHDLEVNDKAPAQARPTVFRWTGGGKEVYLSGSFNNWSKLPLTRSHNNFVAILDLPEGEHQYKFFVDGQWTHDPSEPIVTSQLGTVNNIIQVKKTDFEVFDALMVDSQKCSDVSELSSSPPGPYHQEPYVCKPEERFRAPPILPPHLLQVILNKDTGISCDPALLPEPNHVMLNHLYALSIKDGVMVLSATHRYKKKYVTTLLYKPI
T1 sequence (P54619 whole entry partner): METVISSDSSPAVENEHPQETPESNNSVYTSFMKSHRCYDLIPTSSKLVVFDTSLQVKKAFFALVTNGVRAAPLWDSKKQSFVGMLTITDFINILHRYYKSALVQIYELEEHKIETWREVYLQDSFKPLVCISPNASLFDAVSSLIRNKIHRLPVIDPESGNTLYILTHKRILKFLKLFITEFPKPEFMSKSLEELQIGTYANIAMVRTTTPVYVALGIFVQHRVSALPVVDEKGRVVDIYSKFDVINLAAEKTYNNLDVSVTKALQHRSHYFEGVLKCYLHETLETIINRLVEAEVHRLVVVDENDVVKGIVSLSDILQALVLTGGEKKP

O=C(O)c1c[nH]c2cc(Cl)c(-c3ccc(C4(O)CCC4)cc3)cc12 [Compound 1]
fetal hemoglobin protein expression in bone marrow (fetal hemoglobin protein): increase
Nrf2-antioxidant response element signaling pathway (IPA of proteomics data) [1]: activated
HO-1 (HMOX1) protein regulation ([1]; vs DMSO): upregulated
SQSTM1 protein regulation ([1]; vs DMSO): upregulated
mRNA for human HbF (human γ-globin, HBG) increase [2]: not
ROS in bone marrow [3]: decrease
expression of proinflammatory M1 marker CD38 (M1 macrophages): decreased
expression of proinflammatory M1 marker CD64 (M1 macrophages): decreased
expression of proinflammatory M1 marker CD80 (M1 macrophages): decreased
expression of proinflammatory M1 marker CD86 (M1 macrophages): decreased
expression of differentiation markers CD71 and CD235a (human CD34+ cells [4]; after 14 days of differentiation): unchanged
enucleation of CD34+ cells (human CD34+ cells [4]; after 21 days of differentiation): no effect
fetal hemoglobin induction, F-cell (HbF+) frequency in enucleated GlyA+ cells (human CD34+ cells [5]; 14 days of differentiation): increases
increase of HbF+ cells compared to DMSO (human CD34+ cells [5]; 21 days of differentiation): about 2 fold
frequency of F-cells (HbF+) (human CD34+ cells [5]; 21 days of differentiation): increase
F-cell (HbF+) frequency in enucleated GlyA+ cells [6]: increase
hematocrit [7]: does not reduce
hemoglobin [7]: does not reduce
red blood cell counts (RBC) [7]: does not reduce

NC(=O)NO [Hydroxyurea, hydroxyurea]
fetal hemoglobin induction, F-cell (HbF+) frequency in enucleated GlyA+ cells (human CD34+ cells [5]; 14 days of differentiation): increases
fold change in fetal hemoglobin expression compared to control (human CD34+ cells [5]; 14 days of differentiation, vs Vehicle (DMSO)): 1,5 fold
F-cell (HbF+) frequency in enucleated GlyA+ cells [6]: increase

OCCOc1cc(F)c(COc2nc3nc(O[C@@H]4CO[C@H]5[C@@H]4OC[C@H]5O)[nH]c3cc2Cl)c(F)c1 [Compound 3]
time of peak AMPK phosphorylation (Thr172, pAMPK/total AMPK) (AMPK [8]): around 1 hours
time of peak AMPK phosphorylation (Thr172, pAMPK/total AMPK) (AMPK [9]): around 3 hour
frequency of F-cells (HbF+) (human CD34+ cells [5]; 21 days of differentiation): increase

COc1cccc(-n2c(=O)[nH]c3cc(Cl)n(-c4ccc(-c5cccc(OC)c5O)cc4)c3c2=O)c1 [Compound 4]
time of peak AMPK phosphorylation (Thr172, pAMPK/total AMPK) (AMPK [8]): around 1 hours
time of peak AMPK phosphorylation (Thr172, pAMPK/total AMPK) (AMPK [9]): around 3 hour
frequency of F-cells (HbF+) (human CD34+ cells [5]; 21 days of differentiation): increase

N#Cc1c(O)c2c(-c3ccc(-c4ccccc4O)cc3)csc2[nH]c1=O [Compound 2]
time of peak AMPK phosphorylation (Thr172, pAMPK/total AMPK) (AMPK [8]): around 1 hours
frequency of F-cells (HbF+) (human CD34+ cells [5]; 21 days of differentiation): increase
